Columns and labels:
Assay type in all cases: cell-based
S. epidermidis [1] = assay: S. epidermidis growth stimulation, in-vitro hole plate assay on tellurite-TSA; settings: 40 μl of 1 mg/ml solution per well, 35° C., 24 h, vs water control
Protocol: To this effect, an S. epidermidis growth simulation assay was employed, using potassium tellurite as the growth indicator, observed in the assay as brown zones. An S. epidermidis log phase culture at 1:200 (containing approximately 1×10^7 cfu/ml of bacteria) was used as the working culture in the experiment.
The working culture was plated onto tellurite-TSA, after which 5 mm diameter holes were respectively punched into the agar for forming the testing wells. 40 μl of a solution containing the tetrapeptide at a concentration of 1 mg/ml were then added to a first and second well, and the same volume of water was added as the control to a third well. The Petri dish was then incubated at 35° C. for 24 h.

S. epidermidis [2] = assay: S. epidermidis in vitro liquid assay (microtiter plate, OD600nm); settings: SCD-bouillon (1:2), pH 6.5, vs control devoid of additive
Protocol: A Microtiter plate having wells with a respective volume of 200 μl was used for the S. epidermidis in vitro liquid assay. To this effect, a 24 h cell culture of S. epidermidis was diluted 1:200 thus affording an optical density OD600nm of 0.06 in SCD-bouillon (1:2). The samples used in the experiment further contained the inventive tetrapeptide H-Lys(H-Asp-NH2)-Ala-Glu-NH2 in respective concentrations of 1 mg/ml and 0.2 mg/ml. As control assay, samples containing 1 mg/ml of a mixture containing Alanine, Glutamine, Lysine, and Asparagine in equal parts and samples containing no further components in addition to S. epidermidis were respectively employed. The pH of all of the samples was 6.5.

S. aureus = S. aureus in vitro liquid assay (microtiter plate, OD600nm); settings: 1 mg/ml, SCD-bouillon (1:2), pH 6.5, vs control devoid of additive
Protocol: An S. aureus in vitro liquid assay was performed on a Microtiter plate having wells with a respective volume of 200 μl. To this effect, a 24 h cell culture of S. aureus was diluted 1:500 thus affording an optical density OD600nm of 0.05 in SCD-bouillon (1:2). One of the samples used in the experiment further contained the inventive tetrapeptide H-Lys(H-Asp-NH2)-Ala-Glu-NH2 in a concentration of 1 mg/ml. The pH of the samples was 6.5.

CC(NC(=O)C(N)CCCCNC(=O)CC(N)C(N)=O)C(=O)NC(CCC(=O)O)C(N)=O (stereo not drawn) [H-Lys(H-Asp-NH2)-Ala-Glu-NH2]
growth of S. epidermidis (tellurite growth indicator zone around well) (S. epidermidis [1]): able to stimulate the growth | growth of S. epidermidis (tellurite growth indicator zone around well) (S. epidermidis [1]; listed as inventive tetrapeptide): clearly stimulated | growth of S. epidermidis (optical density OD600nm over incubation time) (S. epidermidis [2]; 0.2 mg/ml): stimulation is already apparent | growth of S. epidermidis (optical density OD600nm over incubation time) (S. epidermidis [2]; 1 mg/ml): clearly stimulates the growth | growth of S. aureus (optical density OD600nm over incubation time) (S. aureus): clearly inhibited

From US9220672B2, “Peptide for use in the treatment of skin conditions” (ORGANOBALANCE GMBH, priority 2011, dated 2015)
